Test results published in patent US8828984B2, “Gold(III) complexes containing N-heterocyclic carbene ligand, synthesis, and their applications in cancer treatment and thiol detection” (University of Hong Kong, priority 2012, dated 2014).

Key:
breast cancer (MCF-7) = experiment: MTT cytotoxicity assay, MCF-7; assay type: cell-based, human; conditions: 72 h
Protocol: (§1) Example 2 describes the in vitro cytotoxicity, which is indicative of the induction of cell death and/or inhibition of cellular proliferation of cancer cells, of the Au(III)-NHC complexes on cervical epithelioid carcinoma, hepatocellular carcinoma, leukemia, nasopharyngeal carcinoma, breast carcinoma, melanoma, and lung carcinoma.
(§2) By means of MTT assays, the cytotoxic properties of 1-11 were determined toward some established human cancer cell lines including hepatocellular carcinoma (HepG2), cervical epithelioid carcinoma (HeLa), lung carcinoma (NCI-H460), breast cancer (MCF-7), melanoma (B 16) and nasopharyngeal carcinoma (SUNE1).

[1] = system: nasopharyngeal carcinoma (SUNE1); experiment: MTT cytotoxicity assay, SUNE1; assay type: cell-based, human; conditions: 72 h
Protocol: as §1, §2

[2] = system: hepatocellular carcinoma (HepG2); experiment: MTT cytotoxicity assay, HepG2; assay type: cell-based, human; conditions: 72 h
Protocol: as §1, §2

[3] = system: Thioredoxin reductase (TrxR); conditions: HeLa cells incubated for 1 h; compared with auranofin
Protocol: Cell-based TrxR activity experiment was incorporated in our experiments. […] The cell lysates (10 μg proteins) were added to a buffer (100 μL) containing 100 mM potassium phosphate, pH 7.4, 1 mM EDTA and 0.2 mM NADPH. Reaction was initiated by adding 5,5′-dithiobis(2-nitrobenzoic acid) (DTNB, 3 mM final) and the TrxR activities were determined as increases in O.D. 410 nm in 10 min.

[4] = system: lung carcinoma (NCI-H460); experiment: MTT cytotoxicity assay, NCI-H460; assay type: cell-based, human; conditions: 72 h
Protocol: as §1, §2

[5] = system: cervical epithelioid carcinoma (HeLa); experiment: MTT cytotoxicity assay, HeLa; assay type: cell-based, human; conditions: dose required to inhibit 50% cellular growth for 72 h
Protocol: as §1, §2

melanoma (B 16) = experiment: MTT cytotoxicity assay, B16; assay type: cell-based, mouse; conditions: 72 h
Protocol: as §1, §2

[6] = Preliminary toxicity experiment in mice; assay type: in vivo
HeLa xenograft = experiment: In vivo tumor inhibition, mice bearing HeLa xenograft; conditions: 3 mg/kg, nude mice bearing HeLa xenograft
Protocol: Female BALB/cAnN-nu (Nude), 5-7 weeks old, were purchased from the Charles River Laboratories (Wilmington, Mass.) and cared for according to the guidelines of the Laboratory Animal Unit of the University of Hong Kong (HKU). All animal experiments were conducted under the guidelines approved by the Committee on the Use of Live Animals in Teaching and Research of HKU. To establish the HeLa xenograft model, 4×10^6 HeLa cells suspended in 100 μl of PBS were inoculated into the back flanks of female BALB/cAnN-nu (Nude) mice by subcutaneous injection. When the tumor volumes reached about 50 mm^3 (4 days after tumor inoculation), the mice were randomly divided into different treatment groups (3 mg/kg of 5 or solvent control). Complex 5 was reconstituted in PET diluent (60% polyethylene glycol 400, 30% ethanol, 10% Tween 80). Complex 5 dissolved in PET diluent and then diluted in PBS or PBS supplemented with equal amount of PET were injected into the mice by intratumoral injection once every three days until the mice were sacrificed. In this model, the volume of PET diluent injected into each mouse was ≦6 μl. Tumor sizes were measured once every 3 times a week, and tumor volume (V) was calculated by the formula V=ab^2×0.52, where a and b were the longest and the shortest diameters of the xenografted tumor. The tumor inhibition was calculated according to the following formula: Inhibition percentage=[1−(V−V0)/(V′−V0′)]×100% where V and V′ are the tumor volumes of 5 treatment and solvent control, respectively. V0 and V0′ are the initial tumor volumes of the 5 treatment and solvent control, respectively.

HeLa cells = experiment: Fluorescence microscopic examination of HeLa cells; assay type: cell-based, human; conditions: 20 μM, 10 min, ex 340 nm
Protocol: Fluorescence microscopic examination 9: HeLa cells (1×10^5 cells) were seeded in a one chamber slide (Nalgene; Nunc) with culture medium (2 mLwell^−1) and incubated at 37° C. in a humidified atmosphere of 5% CO2/95% air for 24 h. After treating with 9 (20 μM, 1 mL) for 10 min, cells were directly exposed for fluorescent imaging without removing the old medium. The bright-field and fluorescent images (ex: 340 nm) were examined in Axiovert 200 (Carl Zeiss) and in an Axio Vision Rel. 4.5 imaging system (Carl Zeiss).

PARP, caspase 3, 7 and 9 = experiment: Western blotting of apoptosis related proteins in HeLa cells; assay type: cell-based, human; conditions: 15 μM, 48 h
Protocol: Meanwhile, considerable attention has been paid on apoptosis for which can lead cancer cell death. After treating HeLa cells with 15 μM of complex 9 for 48 h, apoptosis related PARP, caspase 3, 7 and 9 were activated according to western blotting results (FIG. 4b).

Compound | IC50 (breast cancer (MCF-7)) | IC50 [1] | IC50 [2] | Inhibition of cell-based TrxR activity [3] | IC50 [4] | IC50 [5] | IC50 (melanoma (B 16)) | Toxicity to mice at 7 mg/kg (body weight) ([6]; 7 mg/kg) | Toxicity to mice at 20 mg/kg ([6]; 20 mg/kg) | Tumor inhibition after 11 days (HeLa xenograft; intratumoral injection once every three days, 11 days (p<0.05)) | Tumor inhibition after 14 days (HeLa xenograft; intratumoral injection once every three days, 14 days (p<0.01)) | Mouse death / mouse body weight loss during treatment (HeLa xenograft; intratumoral) | Cellular fluorescence (localisation) (HeLa cells) | Activation of apoptosis related PARP, caspase 3, 7 and 9 (western blotting) (PARP, caspase 3, 7 and 9)
Cn1cc[n+](C)[c]1[Au-]12[n]3ccnc3-c3cccc([n+]31)-c1ncc[n]12.O=S(=O)([O-])C(F)(F)F [Complex 1] | 18.4 ± 0.3 µM | 28.7 ± 7.3 µM | 36.2 ± 2.2 µM | can inhibit cell-based TrxR activity similarly to auranofin | 55 ± 8.5 µM | 32.9 ± 1.3 µM | 30.6 ± 0.3 µM | – | – | – | – | – | – | –
CCCCCCCCn1cc[n+](C)[c]1[Au-]12[n]3ccnc3-c3cccc([n+]31)-c1ncc[n]12.O=S(=O)([O-])C(F)(F)F [Complex 3] | 8.5 ± 0.2 µM | 8.9 ± 0.6 µM | 14.7 ± 1.5 µM | – | 17.3 ± 0.3 µM | 14 ± 0.3 µM | 3.8 ± 0.1 µM | – | – | – | – | – | – | –
CCCCCCCCCCn1cc[n+](C)[c]1[Au-]12[n]3ccnc3-c3cccc([n+]31)-c1ncc[n]12.O=S(=O)([O-])C(F)(F)F [Complex 4] | 6.5 ± 0.5 µM | 5.5 ± 0.3 µM | 11.8 ± 1.2 µM | – | 9.7 ± 0.4 µM | 8.2 µM | 1.6 ± 0.1 µM | – | – | – | – | – | – | –
CCCCCCCCCCCCCCCCn1cc[n+](C)[c]1[Au-]12[n]3ccnc3-c3cccc([n+]31)-c1ncc[n]12.O=S(=O)([O-])C(F)(F)F [Complex 5] | 2.9 ± 0.2 µM | 28.6 ± 0.3 µM | 3.3 ± 0.5 µM | – | 1.4 ± 0.1 µM | 1.4 ± 0.2 µM | 2.2 ± 0.1 µM | slight drop of body weight | toxic to mice | up to 60% | ≤ 76% | No mouse death or mouse body weight loss was found | – | –
CCCCn1cc[n+](CCCC)[c]1[Au-]12[n]3ccnc3-c3cccc([n+]31)-c1ncc[n]12.O=S(=O)([O-])C(F)(F)F [Complex 6] | 12.9 ± 2 µM | 9.9 ± 0.2 µM | 28.7 ± 5.9 µM | – | 7.9 ± 1.1 µM | 13 ± 1.6 µM | 8.3 ± 0.2 µM | – | – | – | – | – | – | –
CCCCCCn1cc[n+](CCCCCC)[c]1[Au-]12[n]3ccnc3-c3cccc([n+]31)-c1ncc[n]12.O=S(=O)([O-])C(F)(F)F [Complex 7] | 8.6 ± 0.1 µM | 36.8 ± 1.6 µM | 9.1 ± 0.3 µM | – | 34.6 ± 3.1 µM | 8.2 µM | 7.7 ± 1 µM | – | – | – | – | – | – | –
C[n+]1ccn(CCC[P+](c2ccccc2)(c2ccccc2)c2ccccc2)[c]1[Au-]12[n]3ccnc3-c3cccc([n+]31)-c1ncc[n]12.O=S(=O)([O-])C(F)(F)F.O=S(=O)([O-])C(F)(F)F [Complex 8] | 49.7 ± 3 µM | 47.3 ± 6.2 µM | – | – | 65.4 ± 1.1 µM | 77.4 ± 1.8 µM | 36.8 ± 0.9 µM | – | – | – | – | – | – | –
Cn1cc[n+](C)[c]1[Au-]12[n]3c(nc4ccccc43)-c3cccc([n+]31)-c1nc3ccccc3[n]12.O=S(=O)([O-])C(F)(F)F [Complex 9] | 11.9 ± 1 µM | 11.2 ± 0.6 µM | 18 ± 0.5 µM | can inhibit cell-based TrxR activity similarly to auranofin | 11.2 ± 0.7 µM | 14.4 µM | 12.4 ± 0.1 µM | – | – | – | – | – | significant blue fluorescence was detected in cytoplasm but not in nucleus or extracellular environment | activated
CCCCn1cc[n+](CCCC)[c]1[Au-]12[n]3c(nc4ccccc43)-c3cccc([n+]31)-c1nc3ccccc3[n]12.O=S(=O)([O-])C(F)(F)F [Complex 10] | 8.7 ± 0.2 µM | 5.2 ± 1.6 µM | 14.7 ± 1.1 µM | – | 5.5 ± 0.3 µM | 9.2 ± 0.4 µM | 5.2 ± 0.2 µM | – | – | – | – | – | – | –
CCCCCCn1cc[n+](CCCCCC)[c]1[Au-]12[n]3c(nc4ccccc43)-c3cccc([n+]31)-c1nc3ccccc3[n]12.O=S(=O)([O-])C(F)(F)F [Complex 11] | 4 ± 0.1 µM | 3.1 ± 0.3 µM | 2.6 ± 0.4 µM | – | 5 ± 0.1 µM | 8.4 ± 0.1 µM | 5.5 ± 0.1 µM | – | – | – | – | – | – | –
